Test results as given in patent US8106055B2, “Substituted amide compounds” (Gruenenthal GmbH, priority 2007, dated 2012).

Legend:
[1] = target: T1, serotonin (5-HT) reuptake (Rattus norvegicus, UniProt P31652); experiment: Inhibition of serotonin (5HT) reuptake in synaptosomes from rat brain; type: biochemical; conditions: test concentration of 10 μM
T1 construct: synaptosomes are freshly isolated from areas of the rat brain; from tissue; host or cells: rat brain synaptosomes (P2 fraction)
Outline: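 Compounds screened at 10 μM and reported as percent inhibition of serotonin uptake. Uptake measured in a freshly prepared P2 synaptosomal fraction from rat brain.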

[2] = target: T2, human bradykinin 1 receptor (B1R) (Homo sapiens, UniProt P46663); experiment: Functional investigation on the human bradykinin 1 receptor (B1R), Ca2+ FLIPR assay in CHO K1 hB1R cells; type: cell-based; conditions: B1R antagonism human; test substance 10 μM; Ca2+ FLIPR, CHO K1 hB1R cells
T2 construct: expressed in transfected cells; host or cells: CHO K1 cells
T2 sequence (P46663 1-353): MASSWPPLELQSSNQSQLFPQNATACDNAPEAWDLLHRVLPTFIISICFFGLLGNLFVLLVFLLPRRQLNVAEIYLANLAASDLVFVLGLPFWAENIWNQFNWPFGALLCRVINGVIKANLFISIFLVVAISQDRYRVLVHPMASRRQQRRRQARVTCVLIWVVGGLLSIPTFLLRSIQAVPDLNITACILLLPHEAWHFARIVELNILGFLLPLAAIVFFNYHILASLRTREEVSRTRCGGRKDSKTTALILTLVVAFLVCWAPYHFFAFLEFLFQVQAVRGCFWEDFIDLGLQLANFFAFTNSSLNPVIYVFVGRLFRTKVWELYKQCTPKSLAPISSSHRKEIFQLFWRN
Outline: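 Fluo-4 Ca2+ readout, peak fluorescence. Stable CHO K1 transfectants; compound pre-incubated 10-20 min, then EC80 agonist—Lys-Des-Arg9-BK for hB1R, Des-Arg9-BK for rB1R. % inhibition vs maximal inhibition; IC50 from multiple concentrations, duplicate/triplicate, ≥2 independent runs.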

T1 sequence (P31652 whole entry): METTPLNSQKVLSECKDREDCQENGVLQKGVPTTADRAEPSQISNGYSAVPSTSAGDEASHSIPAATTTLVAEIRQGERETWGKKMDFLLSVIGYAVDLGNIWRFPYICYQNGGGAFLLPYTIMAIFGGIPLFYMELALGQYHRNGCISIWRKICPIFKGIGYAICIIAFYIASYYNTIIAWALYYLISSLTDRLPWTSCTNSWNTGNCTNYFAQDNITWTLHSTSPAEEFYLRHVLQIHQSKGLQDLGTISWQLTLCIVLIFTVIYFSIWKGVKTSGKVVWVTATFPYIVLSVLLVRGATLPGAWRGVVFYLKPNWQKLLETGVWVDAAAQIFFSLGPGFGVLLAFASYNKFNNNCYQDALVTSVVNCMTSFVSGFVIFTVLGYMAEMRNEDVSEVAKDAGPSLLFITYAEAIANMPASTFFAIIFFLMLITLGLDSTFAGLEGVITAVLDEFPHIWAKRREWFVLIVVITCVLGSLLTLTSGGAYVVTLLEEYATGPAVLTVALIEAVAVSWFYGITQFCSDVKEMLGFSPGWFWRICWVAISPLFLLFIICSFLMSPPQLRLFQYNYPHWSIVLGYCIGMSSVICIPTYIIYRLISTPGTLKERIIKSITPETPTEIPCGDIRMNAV

Row | SMILES | 5-HT (inhibition of reuptake of serotonin, % inhibition) [1] [%] | B1R Ant. h [10 μM] % Inhibition [2] [%]
1 | COc1cc(C)c(S(=O)(=O)N(C)CCOCC(=O)NCCC2CCC(C(c3ccc(Cl)cc3)N(C)C)CC2)c(C)c1C (stereo not shown) [Example 317] | 88 | 103
2 | CN(C)C(c1cccs1)C1CCC(NC(=O)COCCN2CCN(S(=O)(=O)c3ccccc3)CC2)CC1 (stereo not shown) [Example 341] | 85 | −1
3 | COc1ccc(S(=O)(=O)N2CCCC2COCC(=O)NCCC2CCC(C(c3ccc(Cl)cc3)N(C)C)CC2)cc1 (stereo not shown) [Example 346] | 95 | 52
4 | CN(C)C(c1ccc(Cl)cc1)C1CCC(CCNC(=O)COCCN(C)S(=O)(=O)c2ccc(Cl)cc2Cl)CC1 (stereo not shown) [Example 291] | 81 | 105
5 | CN(C)C(c1cccc(F)c1)C1CCC(CNC(=O)COCCC2CCN(S(=O)(=O)c3ccccc3)CC2)CC1 (stereo not shown) [Example 333] | 84 | 17
6 | CN(C)C(c1cccc(F)c1)C1CCC(CNC(=O)COC2CCCN(S(=O)(=O)c3ccccc3)C2)CC1 (stereo not shown) [Example 309] | 94 | −4
7 | COc1ccc(S(=O)(=O)N2CCCCC2COCC(=O)NCC2CCC(C(c3ccc(F)cc3)N(C)C)CC2)cc1 (stereo not shown) [Example 345] | 92 | 76
8 | CN(C)C(c1ccc(F)cc1)C1CCC(NC(=O)COC2CCN(S(=O)(=O)c3ccc(Cl)cc3Cl)C2)CC1 (stereo not shown) [Example 290] | 89 | 37
9 | Cc1ccc(S(=O)(=O)N(C)CCOCC(=O)NCCC2CCC(C(c3ccc(Cl)cc3)N(C)C)CC2)cc1 (stereo not shown) [Example 306] | 91 | 38
10 | Cc1ccc(S(=O)(=O)N2CCC(OCC(=O)NCC3CCC(C(c4ccc(Cl)cc4)N(C)C)CC3)C2)cc1 (stereo not shown) [Example 304] | 88 | 22
11 | CN(C)C(c1cccc(F)c1)C1CCC(NC(=O)COC2CCN(S(=O)(=O)c3ccccc3)CC2)CC1 (stereo not shown) [Example 335] | 93 | −8
12 | CN(C)C(c1ccc(Cl)cc1)C1CCC(CCNC(=O)COCCN(C)S(=O)(=O)c2cccc(C(F)(F)F)c2)CC1 (stereo not shown) [Example 289] | 94 | 51
13 | COc1cc(C)c(S(=O)(=O)N2CCC(CCOCC(=O)NCC3CCC(C(c4cccc(F)c4)N(C)C)CC3)CC2)c(C)c1C (stereo not shown) [Example 319] | 87 | 0
14 | CN(C)C(c1ccc(F)cc1)C1CCC(NC(=O)COCCN(C)S(=O)(=O)c2ccc(Cl)cc2Cl)CC1 (stereo not shown) [Example 356] | 84 | 92
15 | COc1ccc(S(=O)(=O)N2CCCCC2CCOCC(=O)NCC2CCC(C(c3ccc(F)cc3)N(C)C)CC2)cc1 (stereo not shown) [Example 350] | 92 | 57
16 | COc1cc(C)c(S(=O)(=O)N2CCC(OCC(=O)NC3CCC(C(c4cccc(F)c4)N(C)C)CC3)CC2)c(C)c1C (stereo not shown) [Example 286] | 92 | 37
17 | COc1ccc(S(=O)(=O)N2CCCCC2COCC(=O)NCC2CCC(C(c3cccc(F)c3)N(C)C)CC2)cc1OC (stereo not shown) [Example 329] | 91 | −17
18 | COc1ccc(S(=O)(=O)N(C)CCOCC(=O)NCC2CCC(C(c3cccc(F)c3)N(C)C)CC2)cc1 (stereo not shown) [Example 340] | 81 | 39

Row | SMILES | 5-HT (inhibition of reuptake of serotonin, % inhibition) [1] [%] | B1R Ant. h [10 μM] % Inhibition [2] [%]
19 | CN(C)C(c1cccc(F)c1)C1CCC(CNC(=O)COCCN(Cc2ccccc2)S(=O)(=O)c2ccccc2)CC1 (stereo not shown) [Example 296] | 96 | −1
20 | COc1ccc(S(=O)(=O)N2CCCCC2COCC(=O)NCC2CCC(C(c3ccc(Cl)cc3)N(C)C)CC2)cc1 (stereo not shown) [Example 321] | 86 | 94
21 | CN(C)C(c1cccc(F)c1)C1CCC(CCNC(=O)COCCN(Cc2ccccc2)S(=O)(=O)c2ccccc2)CC1 (stereo not shown) [Example 278] | 98 | 16
22 | COc1ccc(S(=O)(=O)N(C)CCOCC(=O)NCCC2CCC(C(c3cccc(F)c3)N(C)C)CC2)cc1 (stereo not shown) [Example 292] | 83 | 20
23 | CN(C)C(c1ccc(Cl)cc1)C1CCC(CCNC(=O)COCCN(C)S(=O)(=O)c2ccc(Cl)cc2)CC1 (stereo not shown) [Example 347] | 93 | 85
24 | COc1ccc(S(=O)(=O)N2CCCCC2CCOCC(=O)NCC2CCC(C(c3ccc(Cl)cc3)N(C)C)CC2)cc1 (stereo not shown) [Example 312] | 89 | 71
25 | COc1ccc(S(=O)(=O)N2CCCCC2COCC(=O)NCCC2CCC(C(c3ccc(F)cc3)N(C)C)CC2)cc1 (stereo not shown) [Example 349] | 94 | 68
26 | COc1ccc(S(=O)(=O)N(C)CCOCC(=O)NCC2CCC(C(c3ccc(Cl)cc3)N(C)C)CC2)cc1 (stereo not shown) [Example 324] | 83 | 42
27 | COc1cc(C)c(S(=O)(=O)N2CCC(OCC(=O)NCC3CCC(C(c4cccc(F)c4)N(C)C)CC3)CC2)c(C)c1C (stereo not shown) [Example 287] | 96 | 1
28 | CN(C)C(c1cccc(F)c1)C1CCC(NC(=O)COC2CCN(S(=O)(=O)c3ccc(Cl)cc3Cl)C2)CC1 (stereo not shown) [Example 283] | 91 | 50
29 | CN(C)C(c1ccc(Cl)cc1)C1CCC(CNC(=O)COC2CCN(S(=O)(=O)c3ccccc3)C2)CC1 (stereo not shown) [Example 299] | 103 | −15
30 | CN(C)C(c1ccc(Cl)cc1)C1CCC(CNC(=O)COC2CCCN(S(=O)(=O)c3ccccc3)C2)CC1 (stereo not shown) [Example 301] | 92 | 2
31 | COc1ccc(S(=O)(=O)N2Cc3ccccc3CC2COCC(=O)NCC2CCC(C(c3ccc(F)cc3)N(C)C)CC2)cc1 (stereo not shown) [Example 288] | 94 | 62
32 | CN(C)C(c1ccc(Cl)cc1)C1CCC(CNC(=O)COC2CCN(S(=O)(=O)c3cccc(C(F)(F)F)c3)C2)CC1 (stereo not shown) [Example 331] | 84 | 30
33 | CN(C)C(c1cccc(F)c1)C1CCC(NC(=O)COCCN(C)S(=O)(=O)c2cccc(C(F)(F)F)c2)CC1 (stereo not shown) [Example 297] | 86 | 15
34 | CN(C)C(c1ccc(Cl)cc1)C1CCC(CNC(=O)COCCN(C)S(=O)(=O)c2c(Cl)cc(Cl)cc2Cl)CC1 (stereo not shown) [Example 318] | 91 | 104
35 | COc1ccc(S(=O)(=O)N2CCCCC2COCC(=O)NC2CCC(C(c3cccc(F)c3)N(C)C)CC2)cc1OC (stereo not shown) [Example 352] | 91 | −18
